Measurements: the supplement of paper PMC10627819

How the values were obtained:
[1] = system: B. subtilis 168; experiment: fitness (endpoint OD595 vs no drug) (fraction); higher = more growth
How it was run: (§1)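 Fitness was measured as bacterial growth in 384-well plates inoculated at OD595 0.01 (30 µl, or 55 µl for S. pneumoniae). Media were TSB, LB Lennox or CY, at 37 °C. OD595 was read every 30 min for 14 h and background-subtracted against the first reading. Fitness is OD595 at the transition into stationary phase divided by the robust mean of no-drug control wells, capped at 1.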

[2] = system: S. aureus DSM 20231; experiment: as above
How it was run: as §1

[3] = system: S. pneumoniae D39V; experiment: as above
How it was run: as §1

[4] = system: B. subtilis 168; experiment: Bliss interaction score (quartile over a dose matrix) (fitness difference); higher = more antagonism (negative = synergy)
How it was run: (§2)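 At entry into stationary phase, OD595 was recorded and divided by the robust mean of the no-drug wells on that plate, with any value above 1 set to 1. This gives the fitness measure used throughout. Single-drug fitness was inferred from combination data, and the Bliss score, observed minus product-expected fitness, is shown as quartiles across technical, biological and donor/recipient replicates.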

[5] = system: S. aureus DSM 20231; experiment: as above
How it was run: as §2

[6] = system: S. aureus Newman; experiment: as above
How it was run: as §2

[7] = system: S. pneumoniae D39V; experiment: as above
How it was run: as §2

[8] = system: S. aureus Newman; experiment: fitness (endpoint OD595 vs no drug) (fraction); higher = more growth; details: partner 75 µg/mL, main component drawn
How it was run: as §1
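Throughout, for Bliss interaction score (quartile over a dose matrix): first quartile when negative (synergy) and third quartile when positive (antagonism).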

CCCCCCCCCC(=O)N[C@@H](Cc1c[nH]c2ccccc12)C(=O)N[C@H](CC(N)=O)C(=O)N[C@@H](CC(=O)O)C(=O)N[C@@H]1C(=O)NCC(=O)N[C@@H](CCCN)C(=O)N[C@@H](CC(=O)O)C(=O)N[C@H](C)C(=O)N[C@@H](CC(=O)O)C(=O)NCC(=O)N[C@H](CO)C(=O)N[C@@H]([C@H](C)CC(=O)O)C(=O)N[C@@H](CC(=O)c2ccccc2N)C(=O)O[C@@H]1C [Daptomycin] + CC(=O)NC[C@H]1CN(c2ccc(N3CCOCC3)c(F)c2)C(=O)O1 [Linezolid]
one replicate
Details	fitness
[1], first compound 0.125 µg/mL, partner 0.0625 µg/mL	0.944
[1], first compound 0.25 µg/mL, partner 0.0625 µg/mL	0.932
[1], first compound 0.5 µg/mL, partner 0.0625 µg/mL	0.802
[1], first compound 1 µg/mL, partner 0.125 µg/mL	0.6
[1], first compound 1 µg/mL, partner 0.25 µg/mL	0.279
[1], first compound 1 µg/mL, partner 0.5 µg/mL	0.0175
[2], first compound 0.125 µg/mL, partner 0.125 µg/mL	0.729
[2], first compound 0.125 µg/mL, partner 1 µg/mL	0.0431
[2], first compound 0.25 µg/mL, partner 0.125 µg/mL	0.869
[2], first compound 0.25 µg/mL, partner 1 µg/mL	0.0221
[2], first compound 0.5 µg/mL, partner 1 µg/mL	0.0214

fitness
Details	first compound 0.125 µg/mL	first compound 0.25 µg/mL	first compound 0.5 µg/mL	first compound 1 µg/mL	first compound 2 µg/mL	first compound 4 µg/mL
[1], partner 0.125 µg/mL	0.604	0.605	0.508	–	–	–
[1], partner 0.25 µg/mL	0.0809	–	–	–	–	–
[1], partner 0.5 µg/mL	0.0486	0.0567	0.0348	–	–	–
[2], partner 0.125 µg/mL	–	–	0.844	0.928	0.951	–
[2], partner 0.25 µg/mL	0.629	0.595	0.651	0.823	0.775	–
[2], partner 0.5 µg/mL	0.19	0.177	0.257	0.319	0.335	–
[3], partner 0.105 µg/mL	–	–	–	0.741	0.786	0.77
[3], partner 0.2 µg/mL	–	–	–	0.409	0.413	0.412
[3], partner 0.21 µg/mL	–	–	–	0.651	0.689	0.689
[3], partner 0.4 µg/mL	–	–	–	0.207	0.22	0.205
[3], partner 0.42 µg/mL	–	–	–	0.476	0.447	0.554
[3], partner 0.8 µg/mL	–	–	–	0.0731	0.0931	0.0732

Details	Bliss interaction score
[4]	0.0563
[5]	0.0745
[6]	0.0604
[7]	-0.141

CC1(C)S[C@@H]2[C@H](NC(=O)[C@H](N)c3ccc(O)cc3)C(=O)N2[C@H]1C(=O)O [Amoxicillin] + CC[C@H](C)[C@H](N)C1=N[C@H](C(=O)N[C@@H](CC(C)C)C(=O)N[C@H](CCC(=O)O)C(=O)N[C@H](C(=O)N[C@H]2CCCCNC(=O)[C@H](CC(N)=O)NC(=O)[C@@H](CC(=O)O)NC(=O)[C@H](Cc3cnc[nH]3)NC(=O)[C@@H](Cc3ccccc3)NC(=O)[C@H]([C@@H](C)CC)NC(=O)[C@@H](CCCN)NC2=O)[C@@H](C)CC)CS1 [Bacitracin]
Details	Bliss interaction score	fitness
[4], main component drawn	-0.101	–
[5], main component drawn	-0.0167	–
[6], main component drawn	0.0659	–
[7], main component drawn	0.104	–
[8], first compound 0.0625 µg/mL	–	0.0143
[8], first compound 0.125 µg/mL	–	0.0081
[8], first compound 0.25 µg/mL	–	0.0047

CCN(CC)CCOC(=O)c1ccc(N)cc1 [Procaine] + COc1cc(Cc2cnc(N)nc2N)cc(OC)c1OC [Trimethoprim]
fitness, [1], one replicate
Details	partner 0.1 µg/mL	partner 0.125 µg/mL	partner 0.2 µg/mL	partner 0.4 µg/mL	partner 1 µg/mL	partner 2 µg/mL
first compound 85.5 µg/mL	0.877	0.771	0.722	0.555	0.393	0.277
first compound 171 µg/mL	0.836	0.775	0.783	0.544	0.444	0.295
first compound 342 µg/mL	0.83	0.742	0.832	0.555	0.37	0.383

fitness
Details	first compound 85.5 µg/mL	first compound 171 µg/mL	first compound 342 µg/mL
[1], partner 0.25 µg/mL	0.704	0.688	0.69
[1], partner 0.5 µg/mL	0.531	0.562	0.498
[2], partner 0.125 µg/mL	0.669	0.744	0.709
[2], partner 0.25 µg/mL	0.565	0.607	0.613
[2], partner 0.5 µg/mL	0.118	0.123	0.144
[2], partner 1 µg/mL	0.0274	0.0353	0.021

Details	Bliss interaction score
[4]	0.0837
[5]	-0.0543
[6]	0.0842
[7]	0.0954

CC1(C)S[C@@H]2[C@H](NC(=O)[C@H](N)c3ccc(O)cc3)C(=O)N2[C@H]1C(=O)O [Amoxicillin] + CC(=O)NC[C@H]1CN(c2ccc(N3CCOCC3)c(F)c2)C(=O)O1 [Linezolid]
Details	fitness
[2], first compound 0.0625 µg/mL, partner 0.125 µg/mL	0.652
[2], first compound 0.0625 µg/mL, partner 0.25 µg/mL	0.427
[2], first compound 0.0625 µg/mL, partner 0.5 µg/mL	0.161
[2], first compound 0.125 µg/mL, partner 0.125 µg/mL	0.368
[2], first compound 0.125 µg/mL, partner 0.25 µg/mL	0.292
[2], first compound 0.125 µg/mL, partner 0.5 µg/mL	0.0966
[2], first compound 0.25 µg/mL, partner 0.125 µg/mL	0.129
[2], first compound 0.25 µg/mL, partner 0.25 µg/mL	0.0329
[2], first compound 0.25 µg/mL, partner 0.5 µg/mL	0.0469
[3], first compound 0.0008 µg/mL, partner 0.105 µg/mL	0.877
[3], first compound 0.0008 µg/mL, partner 0.21 µg/mL	0.724
[3], first compound 0.0008 µg/mL, partner 0.42 µg/mL	0.592
[3], first compound 0.0015 µg/mL, partner 0.105 µg/mL	0.84
[3], first compound 0.0015 µg/mL, partner 0.2 µg/mL	0.885
[3], first compound 0.0015 µg/mL, partner 0.21 µg/mL	0.784
[3], first compound 0.0015 µg/mL, partner 0.4 µg/mL	0.523
[3], first compound 0.0015 µg/mL, partner 0.42 µg/mL	0.578
[3], first compound 0.0015 µg/mL, partner 0.8 µg/mL	0.377
[3], first compound 0.003 µg/mL, partner 0.105 µg/mL	0.811
[3], first compound 0.003 µg/mL, partner 0.2 µg/mL	0.832
[3], first compound 0.003 µg/mL, partner 0.21 µg/mL	0.72
[3], first compound 0.003 µg/mL, partner 0.4 µg/mL	0.57
[3], first compound 0.003 µg/mL, partner 0.42 µg/mL	0.507
[3], first compound 0.003 µg/mL, partner 0.8 µg/mL	0.39

one replicate
Details	fitness
[2], first compound 0.0625 µg/mL, partner 1 µg/mL	0.0145
[2], first compound 0.125 µg/mL, partner 1 µg/mL	0.012
[2], first compound 0.25 µg/mL, partner 1 µg/mL	0.0104
[2], first compound 0.5 µg/mL, partner 0.125 µg/mL	0.0313
[2], first compound 0.5 µg/mL, partner 0.25 µg/mL	0.0362
[2], first compound 0.5 µg/mL, partner 0.5 µg/mL	0.032
[3], first compound 0.0008 µg/mL, partner 0.2 µg/mL	0.875
[3], first compound 0.0008 µg/mL, partner 0.4 µg/mL	0.648
[3], first compound 0.0008 µg/mL, partner 0.8 µg/mL	0.419
[3], first compound 0.006 µg/mL, partner 0.2 µg/mL	0.532
[3], first compound 0.006 µg/mL, partner 0.4 µg/mL	0.359
[3], first compound 0.006 µg/mL, partner 0.8 µg/mL	0.212

Details	Bliss interaction score
[4]	-0.0837
[5]	0.0353
[6]	-0.0532
[7]	0.225

CCCCCCCCCC(=O)N[C@@H](Cc1c[nH]c2ccccc12)C(=O)N[C@H](CC(N)=O)C(=O)N[C@@H](CC(=O)O)C(=O)N[C@@H]1C(=O)NCC(=O)N[C@@H](CCCN)C(=O)N[C@@H](CC(=O)O)C(=O)N[C@H](C)C(=O)N[C@@H](CC(=O)O)C(=O)NCC(=O)N[C@H](CO)C(=O)N[C@@H]([C@H](C)CC(=O)O)C(=O)N[C@@H](CC(=O)c2ccccc2N)C(=O)O[C@@H]1C [Daptomycin] + COc1cc(Cc2cnc(N)nc2N)cc(OC)c1OC [Trimethoprim]
fitness, [1], one replicate
Details	partner 0.1 µg/mL	partner 0.125 µg/mL	partner 0.2 µg/mL	partner 0.25 µg/mL	partner 0.4 µg/mL	partner 0.5 µg/mL	partner 1 µg/mL	partner 2 µg/mL
first compound 0.125 µg/mL	0.908	0.711	0.755	–	0.533	–	0.328	0.251
first compound 0.25 µg/mL	≥ 1	–	0.756	–	0.555	–	0.226	0.161
first compound 0.5 µg/mL	0.918	–	0.657	–	0.512	–	0.144	0.149
first compound 1 µg/mL	–	0.35	–	0.22	–	0.115	–	–

fitness
Details	first compound 0.125 µg/mL	first compound 0.25 µg/mL	first compound 0.5 µg/mL	first compound 1 µg/mL	first compound 2 µg/mL
[1], partner 0.125 µg/mL	–	0.692	0.659	–	–
[1], partner 0.25 µg/mL	–	–	0.552	–	–
[1], partner 0.5 µg/mL	0.454	–	0.446	–	–
[2], partner 0.125 µg/mL	–	–	0.788	0.745	0.839
[2], partner 0.25 µg/mL	0.573	0.553	0.645	0.657	0.695
[2], partner 0.5 µg/mL	0.128	0.0962	–	0.304	0.37
[2], partner 1 µg/mL	0.0396	0.0212	0.0174	–	–

Details	Bliss interaction score
[4]	0.0723
[5]	-0.0443
[6]	0.0713
[7]	-0.192

CCCCCCCCCC(=O)N[C@@H](Cc1c[nH]c2ccccc12)C(=O)N[C@H](CC(N)=O)C(=O)N[C@@H](CC(=O)O)C(=O)N[C@@H]1C(=O)NCC(=O)N[C@@H](CCCN)C(=O)N[C@@H](CC(=O)O)C(=O)N[C@H](C)C(=O)N[C@@H](CC(=O)O)C(=O)NCC(=O)N[C@H](CO)C(=O)N[C@@H]([C@H](C)CC(=O)O)C(=O)N[C@@H](CC(=O)c2ccccc2N)C(=O)O[C@@H]1C [Daptomycin] + CCC[C@@H]1C[C@@H](C(=O)N[C@@H]([C@H]2O[C@H](SC)[C@H](O)[C@@H](O)[C@H]2O)[C@@H](C)O)N(C)C1 [Lincomycin]
fitness
Details	partner 0.1 µg/mL	partner 0.2 µg/mL	partner 0.215 µg/mL	partner 0.4 µg/mL	partner 0.43 µg/mL	partner 0.8 µg/mL	partner 0.86 µg/mL
[1], first compound 0.125 µg/mL	0.865	0.904	–	0.863	–	–	–
[1], first compound 0.25 µg/mL	0.869	0.901	–	0.848	–	–	–
[1], first compound 0.5 µg/mL	0.937	0.905	–	–	–	–	–
[2], first compound 0.5 µg/mL	0.962	0.821	–	–	–	–	–
[2], first compound 1 µg/mL	0.911	0.806	–	–	–	–	–
[2], first compound 2 µg/mL	0.937	0.817	–	–	–	–	–
[3], first compound 1 µg/mL	–	0.409	0.764	0.22	0.697	0.053	0.396
[3], first compound 2 µg/mL	–	0.405	0.764	0.241	0.72	0.0442	0.408
[3], first compound 4 µg/mL	–	0.366	0.802	0.204	0.702	0.0329	0.411

fitness, [1], one replicate
Details	first compound 0.25 µg/mL	first compound 0.5 µg/mL	first compound 1 µg/mL
partner 0.4 µg/mL	–	–	0.686
partner 0.8 µg/mL	0.851	0.788	0.647
partner 1.6 µg/mL	0.797	0.81	0.657

Details	Bliss interaction score
[4]	-0.0659
[5]	0.099
[6]	0.0732
[7]	-0.133
